Data on nine molecules can be found in ChEMBL document CHEMBL1201862, “PubChem BioAssay data set” (2004).

For test [1], the target named is Glycogen synthase kinase-3 alpha (Homo sapiens, UniProt P49840). In words: Inhibition of Human GSK-3 alpha Activity Measured in Biochemical System Using Microfluidics - 2063-06_Inhibitor_Dose_DryPowder_Activity_Set2. [Related pubchem assays (depositor defined):AID2709].
For test [2], the target named is T1, Glycogen synthase kinase-3 beta (Homo sapiens, UniProt P49841). The test can be described thus: Inhibition of Human GSK-3 beta Activity Measured in Biochemical System Using Microfluidics - 2063-05_Inhibitor_Dose_DryPowder_Activity_Set2. [Related pubchem assays (depositor defined):AID2709].
For test [3], the target named is Cyclin-dependent kinase 5/CDK5 activator 1 (Homo sapiens, UniProt Q00535). In words: human CDK5 activity blockade – biochemical, microfluidic mobility shift, dry powder, selectivity assay for GSK-3 alpha inhibitor project, dose response (AID 588430).
Test [4] has as its target T2, Phospholipase D2 (Homo sapiens, UniProt O14939). The test can be described thus: cellular phospholipase D2 inhibition IC50 – cell-based, dose response (AID 602147).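 Further: cellular assay in HEK293 cells overexpressing GFP-tagged PLD2.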 It counts as functional.
The target of test [5] is T3, Phospholipase D1 (Homo sapiens, UniProt Q13393). The test can be described thus: cellular phospholipase D1 inhibition IC50 – cell-based, dose response (AID 602151).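 Further: cellular PLD1 assay in Calu-1 cells stimulated with PMA.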 It counts as functional.
Test [6] deals with T3, Phospholipase D1. In words: PLD1 purified enzyme concentration response. [Related pubchem assays (depositor defined):AID588854]. It counts as functional.
In test [7] the target is T2, Phospholipase D2. The test can be described thus: PLD2 purified enzyme concentration response. [Related pubchem assays (depositor defined):AID588854]. It is filed as functional.
In test [8] the target is Homeodomain-interacting protein kinase 2 (Homo sapiens, UniProt Q9H2X6). It counts as functional.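 Further: measured within a kinome-wide kinase profiling panel, HIPK2 being one panel member.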
The target of test [9] is Cell division cycle 7-related protein kinase (Homo sapiens, UniProt O00311). It is filed as functional.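 Further: value obtained from a kinome-wide kinase panel.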
Test [10] has as its target Interleukin-1 receptor-associated kinase 4 (Homo sapiens, UniProt Q9NWZ3). It counts as functional.
Test [11] concerns the target Serine/threonine-protein kinase pim-1 (Homo sapiens, UniProt P11309). It counts as functional.
The target in test [12] is cAMP-dependent protein kinase catalytic subunit alpha (Homo sapiens, UniProt P17612). It is filed as functional.
Test [13] concerns the target Mitogen-activated protein kinase kinase kinase kinase 4 (Homo sapiens, UniProt O95819). It counts as functional.
The target in test [14] is T1, Glycogen synthase kinase-3 beta. It counts as functional.
Test [15] concerns the target ALK tyrosine kinase receptor (Homo sapiens, UniProt Q9UM73). It counts as functional.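 Further: ALK tested as one member of a kinase panel screen.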
A further test addresses Wee1-like protein kinase (Homo sapiens, UniProt P30291). The test can be described thus: Navigating the Kinome. Panel member name: WEE1. It counts as functional.
In test [16] the target is Cyclin-dependent kinase 2 (Homo sapiens, UniProt P24941). It is filed as functional.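 Further: CDK2 measured as one member of a broad kinome profiling panel.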
For test [17], the target named is MAP kinase-activated protein kinase 3 (Homo sapiens, UniProt Q16644). It counts as functional.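 Further: value comes from a kinome-wide profiling panel in which MAPKAPK3 is one of the panel members.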
In test [18] the target is Casein kinase I isoform delta (Homo sapiens, UniProt P48730). It is filed as functional.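 Further: measured as one member (CSNK1D) of a kinome panel.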
Test [19] addresses Cyclin-dependent kinase 1 (Homo sapiens, UniProt P06493). It counts as functional.
Test [20] has as its target Cyclin-dependent kinase 5 (Homo sapiens, UniProt Q00535). It is filed as functional.
Test [21] deals with Serine/threonine-protein kinase Chk2 (Homo sapiens, UniProt O96017). It counts as functional.
Test [22] deals with Cyclin-dependent kinase 19 (Homo sapiens, UniProt Q9BWU1). The test can be described thus: Navigating the Kinome. Panel member name: CDC2L6. It is filed as functional.
The target in test [23] is DNA dC->dU-editing enzyme APOBEC-3G (Homo sapiens, UniProt Q9HC16). In words: inhibition of APOBEC3G ssDNA deamination – biochemical, fluorescence, single-stranded DNA substrate, SAR follow-up (AID 602136). It counts as functional. The following applies: read-out: IC50_Mean.
The target in test [24] is DNA dC->dU-editing enzyme APOBEC-3A (Homo sapiens, UniProt P31941). In words: SAR analysis of small molecule inhibitors of APOBEC3A DNA Deaminase via a fluorescence-based single-stranded DNA deaminase assay. It is filed as functional. The following applies: read-out: IC50_Mean.
Test [25] addresses 3-phosphoinositide-dependent protein kinase 1 (Homo sapiens, UniProt O15530). It is filed as functional.
Test [26] addresses Protein kinase C zeta type (Homo sapiens, UniProt Q05513). It is filed as functional.
In test [27] the target is C-C chemokine receptor type 6 (Homo sapiens, UniProt P51684). In words: antagonism of CCR6 beta-arrestin recruitment – cell-based, luminescent beta-arrestin readout, dose response (AID 504728). It is filed as functional. (In general: Activated receptors often draw arrestin, which recruitment assays turn into a signal.)
Test [28] addresses Heat shock protein HSP 90-alpha (Homo sapiens, UniProt P07900). It is filed as functional, organism-based.
The next test deals with Beta-galactosidase (Escherichia coli, UniProt Q8VNN2). In words: detection-enzyme interference by beta-gal modulators – biochemical, E. coli enzyme, set 3, artefact control for CCR6 antagonist project, dose response (AID 504712). It counts as functional.
A further test concerns the target HSP90 (Plasmodium falciparum 3D7, UniProt Q8IL32). It counts as functional, organism-based.

Activity calls are given as the source filed them.

T1 sequence (P49841 whole entry): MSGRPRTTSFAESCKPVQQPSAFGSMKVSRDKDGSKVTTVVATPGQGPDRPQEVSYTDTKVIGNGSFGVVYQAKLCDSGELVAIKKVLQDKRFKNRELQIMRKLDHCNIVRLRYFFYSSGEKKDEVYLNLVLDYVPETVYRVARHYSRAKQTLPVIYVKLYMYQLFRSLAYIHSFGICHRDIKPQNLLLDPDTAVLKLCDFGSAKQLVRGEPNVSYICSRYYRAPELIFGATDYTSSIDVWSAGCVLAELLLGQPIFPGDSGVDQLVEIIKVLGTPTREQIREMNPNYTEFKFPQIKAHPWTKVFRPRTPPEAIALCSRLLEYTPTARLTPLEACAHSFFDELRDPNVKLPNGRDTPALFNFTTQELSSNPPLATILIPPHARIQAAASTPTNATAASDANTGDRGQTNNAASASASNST
Sequence of ALK tyrosine kinase receptor (Q9UM73 whole entry): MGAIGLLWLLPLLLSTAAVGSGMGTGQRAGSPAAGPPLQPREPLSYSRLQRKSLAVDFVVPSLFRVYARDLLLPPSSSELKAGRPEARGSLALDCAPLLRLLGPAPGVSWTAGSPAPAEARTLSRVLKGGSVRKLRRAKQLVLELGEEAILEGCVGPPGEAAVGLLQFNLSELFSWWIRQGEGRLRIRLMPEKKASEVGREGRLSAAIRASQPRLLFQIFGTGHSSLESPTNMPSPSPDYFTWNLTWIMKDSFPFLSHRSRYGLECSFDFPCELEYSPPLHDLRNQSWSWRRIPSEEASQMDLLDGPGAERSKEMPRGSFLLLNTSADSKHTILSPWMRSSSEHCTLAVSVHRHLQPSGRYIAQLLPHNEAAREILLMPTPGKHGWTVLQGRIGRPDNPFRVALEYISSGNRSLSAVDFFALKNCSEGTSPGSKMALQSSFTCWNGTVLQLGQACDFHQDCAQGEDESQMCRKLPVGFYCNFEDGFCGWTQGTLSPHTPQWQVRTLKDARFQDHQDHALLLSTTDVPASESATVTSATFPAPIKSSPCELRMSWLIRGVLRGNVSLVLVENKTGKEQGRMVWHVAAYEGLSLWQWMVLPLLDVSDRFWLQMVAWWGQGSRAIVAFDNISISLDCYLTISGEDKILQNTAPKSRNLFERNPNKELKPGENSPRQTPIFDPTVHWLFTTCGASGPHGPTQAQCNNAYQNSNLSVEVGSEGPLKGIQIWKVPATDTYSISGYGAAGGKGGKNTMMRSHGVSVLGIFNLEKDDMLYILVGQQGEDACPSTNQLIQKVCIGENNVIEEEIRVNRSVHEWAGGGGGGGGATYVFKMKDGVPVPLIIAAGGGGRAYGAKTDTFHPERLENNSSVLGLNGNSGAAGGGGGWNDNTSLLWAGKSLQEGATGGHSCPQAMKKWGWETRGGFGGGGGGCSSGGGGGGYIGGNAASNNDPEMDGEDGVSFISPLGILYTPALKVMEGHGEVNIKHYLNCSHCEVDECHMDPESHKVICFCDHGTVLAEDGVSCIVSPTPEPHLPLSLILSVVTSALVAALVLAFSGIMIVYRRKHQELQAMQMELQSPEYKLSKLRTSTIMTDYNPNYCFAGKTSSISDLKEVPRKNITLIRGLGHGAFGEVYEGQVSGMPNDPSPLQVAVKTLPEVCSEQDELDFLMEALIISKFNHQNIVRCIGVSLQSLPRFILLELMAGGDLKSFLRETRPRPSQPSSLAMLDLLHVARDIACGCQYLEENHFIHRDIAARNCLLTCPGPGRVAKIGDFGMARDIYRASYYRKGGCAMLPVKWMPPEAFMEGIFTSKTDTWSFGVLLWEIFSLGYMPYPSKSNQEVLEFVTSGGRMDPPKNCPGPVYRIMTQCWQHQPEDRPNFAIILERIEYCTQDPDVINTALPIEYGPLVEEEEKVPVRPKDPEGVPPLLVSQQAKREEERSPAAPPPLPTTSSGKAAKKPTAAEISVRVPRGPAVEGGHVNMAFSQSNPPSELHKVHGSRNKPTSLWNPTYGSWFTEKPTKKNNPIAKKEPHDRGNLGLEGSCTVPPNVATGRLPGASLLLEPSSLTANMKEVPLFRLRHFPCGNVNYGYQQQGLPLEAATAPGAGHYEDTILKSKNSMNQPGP
T3 sequence (Q13393 whole entry): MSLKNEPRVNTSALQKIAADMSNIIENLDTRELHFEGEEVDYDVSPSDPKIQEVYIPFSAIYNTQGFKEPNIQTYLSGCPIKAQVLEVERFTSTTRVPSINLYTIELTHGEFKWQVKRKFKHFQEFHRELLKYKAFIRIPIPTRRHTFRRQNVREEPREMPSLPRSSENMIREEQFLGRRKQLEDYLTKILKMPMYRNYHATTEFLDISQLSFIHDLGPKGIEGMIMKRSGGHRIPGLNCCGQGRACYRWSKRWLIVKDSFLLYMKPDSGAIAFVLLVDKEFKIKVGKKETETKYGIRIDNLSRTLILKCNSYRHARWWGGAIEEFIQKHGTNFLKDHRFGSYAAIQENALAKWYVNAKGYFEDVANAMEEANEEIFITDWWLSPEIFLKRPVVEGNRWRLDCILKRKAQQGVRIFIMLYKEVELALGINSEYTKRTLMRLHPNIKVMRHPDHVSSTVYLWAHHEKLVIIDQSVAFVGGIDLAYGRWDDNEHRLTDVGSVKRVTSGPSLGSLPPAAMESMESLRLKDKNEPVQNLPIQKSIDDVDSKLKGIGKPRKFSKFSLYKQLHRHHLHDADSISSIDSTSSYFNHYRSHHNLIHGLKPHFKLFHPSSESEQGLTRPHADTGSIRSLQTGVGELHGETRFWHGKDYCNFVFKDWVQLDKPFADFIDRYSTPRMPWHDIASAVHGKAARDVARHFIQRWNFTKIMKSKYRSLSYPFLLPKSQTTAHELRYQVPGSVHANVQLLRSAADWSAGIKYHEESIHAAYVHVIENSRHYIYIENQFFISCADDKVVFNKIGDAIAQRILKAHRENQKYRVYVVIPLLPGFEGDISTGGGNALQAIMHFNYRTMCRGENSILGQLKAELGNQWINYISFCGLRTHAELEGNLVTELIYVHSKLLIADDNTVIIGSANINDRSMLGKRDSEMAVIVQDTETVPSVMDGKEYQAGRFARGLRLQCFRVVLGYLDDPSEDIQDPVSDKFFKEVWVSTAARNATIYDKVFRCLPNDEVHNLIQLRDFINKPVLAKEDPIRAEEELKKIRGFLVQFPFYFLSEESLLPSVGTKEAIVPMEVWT
T2 sequence (O14939 whole entry): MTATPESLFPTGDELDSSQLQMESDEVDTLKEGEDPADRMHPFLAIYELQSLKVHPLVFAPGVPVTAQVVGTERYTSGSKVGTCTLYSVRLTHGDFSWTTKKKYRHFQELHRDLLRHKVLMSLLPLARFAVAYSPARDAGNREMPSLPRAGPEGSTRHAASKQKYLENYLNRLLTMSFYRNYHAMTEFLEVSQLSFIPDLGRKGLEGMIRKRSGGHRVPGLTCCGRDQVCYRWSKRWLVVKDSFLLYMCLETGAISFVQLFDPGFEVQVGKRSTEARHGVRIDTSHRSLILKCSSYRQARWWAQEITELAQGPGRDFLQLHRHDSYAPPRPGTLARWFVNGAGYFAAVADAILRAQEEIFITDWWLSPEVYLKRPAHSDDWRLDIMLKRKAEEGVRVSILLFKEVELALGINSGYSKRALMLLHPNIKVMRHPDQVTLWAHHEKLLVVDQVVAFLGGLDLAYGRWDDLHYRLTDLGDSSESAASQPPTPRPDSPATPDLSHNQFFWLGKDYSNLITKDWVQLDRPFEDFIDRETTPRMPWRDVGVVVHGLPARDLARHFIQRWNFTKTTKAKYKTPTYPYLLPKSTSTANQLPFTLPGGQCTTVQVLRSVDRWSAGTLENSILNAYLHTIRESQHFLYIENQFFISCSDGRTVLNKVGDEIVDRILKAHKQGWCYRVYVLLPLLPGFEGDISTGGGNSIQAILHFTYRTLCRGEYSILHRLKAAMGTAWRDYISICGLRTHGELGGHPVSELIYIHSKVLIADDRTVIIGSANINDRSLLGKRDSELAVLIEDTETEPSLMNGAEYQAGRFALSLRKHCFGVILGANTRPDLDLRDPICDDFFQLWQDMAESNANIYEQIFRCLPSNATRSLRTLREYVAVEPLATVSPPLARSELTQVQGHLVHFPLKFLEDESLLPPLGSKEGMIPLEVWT
Sequence of HSP90 (Q8IL32 whole entry): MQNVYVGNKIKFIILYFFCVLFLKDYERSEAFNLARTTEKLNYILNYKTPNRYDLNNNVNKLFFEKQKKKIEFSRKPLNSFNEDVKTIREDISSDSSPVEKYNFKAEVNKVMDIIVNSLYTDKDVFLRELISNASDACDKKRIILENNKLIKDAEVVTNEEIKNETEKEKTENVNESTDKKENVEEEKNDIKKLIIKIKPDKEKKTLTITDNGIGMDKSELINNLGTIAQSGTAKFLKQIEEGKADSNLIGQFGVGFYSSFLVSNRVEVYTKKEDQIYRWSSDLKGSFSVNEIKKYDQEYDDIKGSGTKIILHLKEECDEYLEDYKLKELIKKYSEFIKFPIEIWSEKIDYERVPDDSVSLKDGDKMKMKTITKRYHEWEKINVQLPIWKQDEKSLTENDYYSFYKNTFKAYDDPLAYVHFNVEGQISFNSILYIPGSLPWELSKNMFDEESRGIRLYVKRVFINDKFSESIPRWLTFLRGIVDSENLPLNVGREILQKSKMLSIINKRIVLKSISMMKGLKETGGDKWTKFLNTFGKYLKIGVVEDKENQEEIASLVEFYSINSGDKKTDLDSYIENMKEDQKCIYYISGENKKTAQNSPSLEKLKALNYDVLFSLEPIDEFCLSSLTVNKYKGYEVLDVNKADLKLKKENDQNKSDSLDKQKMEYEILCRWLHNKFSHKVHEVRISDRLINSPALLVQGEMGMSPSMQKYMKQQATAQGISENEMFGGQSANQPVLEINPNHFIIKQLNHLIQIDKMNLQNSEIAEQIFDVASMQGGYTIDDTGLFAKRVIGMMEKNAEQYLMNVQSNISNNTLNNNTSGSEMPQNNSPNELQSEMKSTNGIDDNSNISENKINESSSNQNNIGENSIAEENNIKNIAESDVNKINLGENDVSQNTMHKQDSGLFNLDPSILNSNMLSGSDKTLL

In general, AC50 refers to the concentration giving half of the maximal activity seen. Turning to `Nc1nonc1-n1nnc(C(=O)N/N=C/c2ccccc2F)c1-c1cccs1`, the figures for the AC50 in test [1], in [2] and in test [3] were 0.422 µM (active), 0.325 µM (active) and 9.28 µM (active), respectively.
For `C[C@@H](CN1CCC(n2c(=O)[nH]c3ccccc32)CC1)NC(=O)COc1ccccc1`, the IC50 at Phospholipase D2 [4] is 3.8 µM (active); at Phospholipase D1 [5], 0.002 µM (active); on Phospholipase D1 [6] it was 0.057 µM (active); at Phospholipase D2 [7] it was 5.8 µM (active).
One may read the Ki as the dissociation constant of the complex between target and ligand, obtained from inhibition or displacement. Regarding `OCCCCNc1cc(-c2c[nH]c3ncccc23)cc(Cl)n1`, the Ki in test [8] was 0.0251 µM (active); in test [9] it was 0.000794 µM (active); in test [10], 5.01 µM (active); in test [11], 0.501 µM (active); in [12], 0.251 µM (active); in test [13], 0.00316 µM (active). For the same molecule, in [14], the Ki was 0.1 µM (active).
In the case of `CCN1CCN(c2ccc(Nc3ncc(C)c(Nc4ccc5[nH]ncc5c4)n3)cc2)CC1`, the inhibitory constant (Ki) was 0.0398 µM (active) in test [15] and 0.0158 µM (active) on Wee1-like protein kinase.
As to `Cc1c(NC2CCC(N)CC2)nc2ccnn2c1Nc1ccc(F)c(Cl)c1` (configuration not stated), the Ki in test [16] was 7.94 µM (active); in test [17], 2 µM (active); in test [18] it was 3.98 µM (active); in test [19], 7.94 µM (active); in test [20], 10 µM (active); in test [21] it was 3.98 µM (active).
Consider `COc1ccccc1Nc1nc(Nc2cnn(C)c2)ncc1Br`, for which the Ki is 1 µM (active) in test [15] and 5.01 µM (active) in test [22].
`c1ccc2c(c1)OCC(c1nnc3c4c5c(sc4ncn13)CCCC5)O2` (configuration not stated): the IC50 in test [23] and in test [24] was > 99 µM (inactive) each time.
As for `O=C(NCc1ccc(Br)cc1)c1cnn2c(-c3ccccc3)ccnc12`, the Ki in test [25] and in test [26] was 2.51 µM (active) each time.
Turning to `Oc1ccc(Cl)c2cccnc12` [CLOXYQUIN], the IC50 (in [27]; on Beta-galactosidase) was > 66.6 µM (inactive) throughout. For the same molecule, the AC50 in [28] was 6.15 µM (active); on HSP90 it was 8.36 µM (active).
